The numbers were not newly measured in publication PMC12239574 (mBio, 2025), which cites them from elsewhere.

The test system of the data set is SARS-CoV-2 with M^pro E166V.

Take `Cn1cnc(Cn2c(=O)[nH]/c(=N\c3cc4cn(C)nc4cc3Cl)n(Cc3cc(F)c(F)cc3F)c2=O)n1` [ensitrelvir]: the “fold increase in the antiviral EC50 relative to the wild-type virus” value is 23 fold.
Turning to `CC(C)(C)[C@H](NC(=O)C(F)(F)F)C(=O)N1C[C@H]2[C@@H]([C@H]1C(=O)N[C@H](C#N)C[C@@H]1CCNC1=O)C2(C)C` [nirmatrelvir], the “fold increase in the antiviral EC50 relative to the wild-type virus” value was 100 fold.
